Patent publication US20110086834A1, “ALKYNYL ALCOHOLS AS KINASE INHIBITORS” (AMGEN INC., priority 2008, published 2011)

Molecular target: T1, NIK (Homo sapiens, UniProt Q99558)
T1 construct: Both assays utilize a truncated form of NIK containing only the catalytic domain; made in house; host or cells: baculovirus expression system (insect cells implied)
Assay: homogenous time resolved fluorescence (HTRF) assay for NIK Ki measurement
Type: biochemical
Settings: truncated NIK (catalytic domain only), autophosphorylation; 10 nM enzyme; 20, 100, 200 or 500 μM ATP; room temperature, 2 hours; read-out: Ki activity in the homogenous time resolved fluorescence (HTRF) assay for NIK

T1 sequence (Q99558 400-655 limits assumed): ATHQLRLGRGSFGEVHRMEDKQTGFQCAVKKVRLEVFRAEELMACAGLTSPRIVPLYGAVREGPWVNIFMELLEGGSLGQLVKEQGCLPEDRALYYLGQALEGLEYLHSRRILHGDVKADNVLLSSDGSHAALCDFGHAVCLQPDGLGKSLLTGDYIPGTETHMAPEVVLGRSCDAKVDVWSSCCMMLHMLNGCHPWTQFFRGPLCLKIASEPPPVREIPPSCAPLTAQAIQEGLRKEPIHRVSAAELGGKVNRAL

Compound	Ki
CC(O)(C#Cc1ccc2c(c1)N(c1ccnc(N)n1)CC2)c1ccn[nH]1 (centres unmarked) [Example 77, 4-(1-(2-Amino-4-pyrimidinyl)-2,3-dihydro-1H-indol-6-yl)-2-(1H-pyrazol-5-yl)-3-butyn-2-ol]	< 1000 nM
CC(O)(C#Cc1ccc2c(c1)N(c1nc(N)ncc1Cl)CC2)c1ccn[nH]1 (centres unmarked) [Example 78, 4-(1-(2-Amino-5-chloro-4-pyrimidinyl)-2,3-dihydro-1H-indol-6-yl)-2-(1H-pyrazol-5-yl)-3-butyn-2-ol]	< 1000 nM
Cc1c[nH]c(C(C)(O)C#Cc2ccc3c(c2)N(c2nc(N)ncc2Cl)CC3(C)C)n1 (centres unmarked) [Example 79, 4-(1-(2-Amino-5-chloro-4-pyrimidinyl)-3,3-dimethyl-2,3-dihydro-1H-indol-6-yl)-2-(4-methyl-1H-imidazol-2-yl)-3-butyn-2-ol]	< 1000 nM
CC(O)(C#Cc1ccc2c(c1)N(c1nc(N)ncc1Cl)CC2(C)C)c1ccn[nH]1 (centres unmarked) [Example 80, 4-(1-(2-amino-5-chloropyrimidin-4-yl)-3,3-dimethylindolin-6-yl)-2-(1H-pyrazol-5-yl)but-3-yn-2-ol and 4-(1-(2-amino-5-chloropyrimidin-4-yl)-3,3-dimethylindolin-6-yl)-2-(1H-pyrazol-3-yl)but-3-yn-2-ol]	< 1000 nM
C[C@](O)(C#Cc1ccc2c(c1)N(c1nc(N)ncc1Cl)CC21COC1)c1nccs1 [Example 81]	1000 to 30000 nM
CC(O)(C#Cc1ccc2[nH]nc(-c3ccns3)c2c1)c1nccs1 (centres unmarked) [Example 83, 4-(3-(isothiazol-5-yl)-1H-indazol-5-yl)-2-(thiazol-2-yl)but-3-yn-2-ol]	< 1000 nM
COCCNC(=O)c1[nH]c2ccc(C#CC(C)(O)c3nccs3)cc2c1-c1ccncn1 (centres unmarked) [Example 89, 5-(3-hydroxy-3-(thiazol-2-yl)but-1-ynyl)-N-(2-methoxyethyl)-3-(pyrimidin-4-yl)-1H-indole-2-carboxamide]	< 1000 nM
COCCNC(=O)c1c(-c2ccncn2)c2cc(C#CC(C)(O)c3nccs3)ccc2n1C (centres unmarked) [Example 90, 5-(3-hydroxy-3-(thiazol-2-yl)but-1-ynyl)-N-(2-methoxyethyl)-1-methyl-3-(pyrimidin-4-yl)-1H-indole-2-carboxamide]	< 1000 nM
C[C@@](O)(C#Cc1ccc2[nH]c(C(=O)N3CCOCC3)c(-c3ccncn3)c2c1)c1nccs1 [Example 91, (5-((R)-3-hydroxy-3-(thiazol-2-yl)but-1-ynyl)-3-(pyrimidin-4-yl)-1H-indol-2-yl)(morpholino)methanone]	< 1000 nM
CC(C)(C)NC(=O)c1ccc(-c2[nH]c3ccc(C#CC4(O)CCCC4)cc3c2-c2ccnc(N)n2)cc1 [Example 93, 4-(3-(2-aminopyrimidin-4-yl)-5-(2-(1-hydroxycyclopentyl)ethynyl)-1H-indol-2-yl)-N-tert-butylbenzamide]	< 1000 nM
N#Cc1ccc(-c2[nH]c3ccc(C#CC4(O)CCCC4)cc3c2-c2ccnc(N)n2)cc1 [Example 94, 4-(3-(2-aminopyrimidin-4-yl)-5-(2-(1-hydroxycyclopentyl)ethynyl)-1H-indol-2-yl)benzonitrile]	< 1000 nM
Nc1ncc(F)c(-c2c[nH]c3ccc(C#CC4(O)CCCC4)cc23)n1 [Example 95, 1-(2-(3-(2-amino-5-fluoropyrimidin-4-yl)-1H-indol-5-yl)ethynyl)cyclopentanol]	< 1000 nM
COCCNC(=O)c1[nH]c2ccc(C#CC3(O)CCCC3)cc2c1-c1ccnc(N)n1 [Example 96, 3-(2-aminopyrimidin-4-yl)-5-(2-(1-hydroxycyclopentyl)ethynyl)-N-(2-methoxyethyl)-1H-indole-2-carboxamide]	< 1000 nM
OC1(C#Cc2ccc3[nH]nc(-c4ccns4)c3c2)CCCC1 [Example 97, 1-(2-(3-(isothiazol-5-yl)-1H-indazol-5-yl)ethynyl)cyclopentanol]	< 1000 nM
COc1cc(C#CC2(O)CCCC2)cc2c1ccn2-c1ccnc(N)n1 [Example 98, 1-(2-(1-(2-aminopyrimidin-4-yl)-4-methoxy-1H-indol-6-yl)ethynyl)cyclopentanol]	< 1000 nM
Nc1nccc(-n2ccc3c(O)cc(C#CC4(O)CCCC4)cc32)n1 [Example 99, 1-(2-aminopyrimidin-4-yl)-6-(2-(1-hydroxycyclopentyl)ethynyl)-1H-indol-4-ol]	< 1000 nM
COCCOc1cc(C#CC2(O)CCCC2)cc2c1ccn2-c1ccnc(N)n1 [Example 100, 1-(2-(1-(2-aminopyrimidin-4-yl)-4-(2-methoxyethoxy)-1H-indol-6-yl)ethynyl)cyclopentanol]	< 1000 nM
CC(=O)Nc1cc(C#CC2(O)CCCC2)cc2c1ccn2-c1ccnc(N)n1 [Example 101, N-(1-(2-aminopyrimidin-4-yl)-6-(2-(1-hydroxycyclopentyl)ethynyl)-1H-indol-4-yl)acetamide]	< 1000 nM
COc1cc(C#CC2(O)CCCC2)cc2c1ccn2-c1nc(N)ncc1F [Example 102, 1-((1-(2-amino-5-fluoropyrimidin-4-yl)-4-methoxy-1H-indol-6-yl)ethynyl)cyclopentanol]	< 1000 nM

Compound	Ki
COc1cc(C#CC2(O)CCCC2)cc2c1c(CO)cn2-c1nc(N)ncc1F [Example 103, 1-(2-(1-(2-amino-5-fluoropyrimidin-4-yl)-3-(hydroxymethyl)-4-methoxy-1H-indol-6-yl)ethynyl)cyclopentanol]	< 1000 nM
Cc1cc(C(C)(O)C#Cc2ccc3[nH]c(C)c(-c4ccncc4)c3c2)no1 (centres unmarked) [Example 104, 4-(2-methyl-3-(pyridin-4-yl)-1H-indol-5-yl)-2-(5-methylisoxazol-3-yl)but-3-yn-2-ol]	< 1000 nM
COCCN(C)C1CCn2c1c(-c1ccncn1)c1cc(C#CC(C)(O)c3nccs3)ccc12 (centres unmarked) [Example 105, 4-(1-((2-methoxyethyl)(methyl)amino)-9-(pyrimidin-4-yl)-2,3-dihydro-1H-pyrrolo[1,2-a]indol-7-yl)-2-(thiazol-2-yl)but-3-yn-2-ol]	< 1000 nM
CC(O)(C#Cc1ccc2[nH]cc(-c3cnco3)c2c1)c1nccs1 (centres unmarked) [Example 106, 4-(3-(oxazol-5-yl)-1H-indol-5-yl)-2-(thiazol-2-yl)but-3-yn-2-ol]	< 1000 nM
Nc1ncc(Cl)c(-c2c[nH]c3ccc(C#CC4(O)CCCC4)cc23)n1 [Example 107, 1-(2-(3-(2-amino-5-chloropyrimidin-4-yl)-1H-indol-5-yl)ethynyl)cyclopentanol]	< 1000 nM
N#Cc1cnc(N)nc1-c1c[nH]c2ccc(C#CC3(O)CCCC3)cc12 [Example 108, 2-amino-4-(5-(2-(1-hydroxycyclopentyl)ethynyl)-1H-indol-3-yl)pyrimidine-5-carbonitrile]	< 1000 nM
Nc1ncc(Cl)c(-c2c[nH]c3ccc(C#CC4(O)CCCCC4)cc23)n1 [Example 109, 1-(2-(3-(2-amino-5-chloropyrimidin-4-yl)-1H-indol-5-yl)ethynyl)cyclohexanol]	< 1000 nM
CNc1nccc(-c2c[nH]c3ccc(C#CC4(O)CCCC4)cc23)n1 [Example 111, 1-(2-(3-(2-(methylamino)pyrimidin-4-yl)-1H-indol-5-yl)ethynyl)cyclopentanol]	< 1000 nM
CNc1ncc(Cl)c(-c2c[nH]c3ccc(C#CC4(O)CCCC4)cc23)n1 [Example 112, 1-(2-(3-(5-chloro-2-(methylamino)pyrimidin-4-yl)-1H-indol-5-yl)ethynyl)cyclopentanol]	< 1000 nM
Nc1ncc(Cl)c(-c2cn(CC3CCCN3)c3ccc(C#CC4(O)CCCC4)cc23)n1 (centres unmarked) [Example 113, 1-(2-(3-(2-amino-5-chloropyrimidin-4-yl)-1-(pyrrolidin-2-ylmethyl)-1H-indol-5-yl)ethynyl)cyclopentanol]	< 1000 nM
Nc1ncc(Cl)c(-c2cn(C3CCNC3)c3ccc(C#CC4(O)CCCC4)cc23)n1 (centres unmarked) [Example 114, 1-(2-(3-(2-amino-5-chloropyrimidin-4-yl)-1-(pyrrolidin-3-yl)-1H-indol-5-yl)ethynyl)cyclopentanol]	< 1000 nM
Cn1cc(-c2nc(N)ncc2Cl)c2cc(C#CC(C)(O)c3nccs3)ccc21 (centres unmarked) [Example 116, 4-(3-(2-amino-5-chloropyrimidin-4-yl)-1-methyl-1H-indol-5-yl)-2-(thiazol-2-yl)but-3-yn-2-ol]	< 1000 nM
C[C@@](O)(C#Cc1ccc2[nH]cc(-c3ccncn3)c2c1)c1nccs1 [Example 117, (2R)-4-(3-(pyrimidin-4-yl)-1H-indol-5-yl)-2-(thiazol-2-yl)but-3-yn-2-ol]	< 1000 nM
Cn1cc(-c2ccncn2)c2cc(C#CC(C)(O)c3cscn3)ccc21 (centres unmarked) [Example 118, 4-(1-methyl-3-(pyrimidin-4-yl)-1H-indol-5-yl)-2-(thiazol-4-yl)but-3-yn-2-ol]	< 1000 nM
CC(C)C(=O)n1cc(-c2nc(N)ncc2Cl)c2cc(C#CC3(O)CCCC3)ccc21 [Example 119, 1-(3-(2-amino-5-chloropyrimidin-4-yl)-5-(2-(1-hydroxycyclopentyl)ethynyl)-1H-indol-1-yl)-2-methylpropan-1-one]	< 1000 nM
CC(=O)n1cc(-c2nc(N)ncc2Cl)c2cc(C#CC3(O)CCCC3)ccc21 [Example 120, 1-(3-(2-amino-5-chloropyrimidin-4-yl)-5-(2-(1-hydroxycyclopentyl)ethynyl)-1H-indol-1-yl)ethanone]	< 1000 nM
Nc1ncc(Cl)c(-c2cn(C(=O)C3CC3)c3ccc(C#CC4(O)CCCC4)cc23)n1 [Example 121, (3-(2-amino-5-chloropyrimidin-4-yl)-5-(2-(1-hydroxycyclopentyl)ethynyl)-1H-indol-1-yl)(cyclopropyl)methanone]	< 1000 nM
CC(C)(C)C(=O)n1cc(-c2nc(N)ncc2Cl)c2cc(C#CC3(O)CCCC3)ccc21 [Example 122, 1-(3-(2-amino-5-chloropyrimidin-4-yl)-5-(2-(1-hydroxycyclopentyl)ethynyl)-1H-indol-1-yl)-2,2-dimethylpropan-1-one]	< 1000 nM
COCCOCCn1cc(-c2nc(N)ncc2Cl)c2cc(C#CC3(O)CCCC3)ccc21 [Example 124, 1-(2-(3-(2-amino-5-chloropyrimidin-4-yl)-1-(2-(2-methoxyethoxy)ethyl)-1H-indol-5-yl)ethynyl)cyclopentanol]	< 1000 nM
